Assay results as given in patent US20260125346A1, “Isoquinolinone Derivatives and 4H-Quinolizinone Derivatives and Pharmaceutical Compositions Thereof for the Treatment of Disease” (BeOne Medicines I GmbH, priority 2023, published 2026).

Experiments:
[1] = tested on: WT cell line SK-BR-3; experiment: Cell Proliferation Assay (CellTiter-Glo), SK-BR-3; type: cell-based; conditions: Homo sapiens, 72 h; SK-BR-3, 3 days treatment
Outline: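 SK-BR-3 cells treated for 3 days with compound in a 9-point series, final concentrations 10 M to 1 nM in 0.1% DMSO. Viability read by CellTiter-Glo luminescence. Relative IC50 from percent inhibition versus medium-only and DMSO controls, four-parameter logistic fit.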

[2] = tested on: WT cell line SK-BR-3; experiment: Phospho-AKT (Ser473) Inhibition Assay (HTRF), SK-BR-3; type: cell-based; conditions: Homo sapiens; SK-BR-3, 1 hour treatment; read-out: p-AKT Inhibition assay (S473) IC50 SK-BR-3
Outline: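 SK-BR-3 (PI3Kα WT) cells seeded overnight in MEM with insulin, then treated 1 h with 11-point 1:3 dilutions (10 μM to 0.1 nM, 0.1% DMSO). Lysates read for phospho-AKT Ser473 by HTRF after 4 h antibody incubation at room temperature. IC50 from 4-parameter fit, % inhibition normalized to DMSO (max) and 10 μM GDC0077 (min).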

[3] = target: PI3Kα (p110/p85) kinase (wild type, "WT") (Homo sapiens, UniProt P42336); experiment: PI3Kα (p110/p85) kinase ADP-Glo Assay; type: biochemical; conditions: 25 uM ATP
PI3Kα (p110/p85) kinase (wild type, "WT"), sequence (P42336 whole entry): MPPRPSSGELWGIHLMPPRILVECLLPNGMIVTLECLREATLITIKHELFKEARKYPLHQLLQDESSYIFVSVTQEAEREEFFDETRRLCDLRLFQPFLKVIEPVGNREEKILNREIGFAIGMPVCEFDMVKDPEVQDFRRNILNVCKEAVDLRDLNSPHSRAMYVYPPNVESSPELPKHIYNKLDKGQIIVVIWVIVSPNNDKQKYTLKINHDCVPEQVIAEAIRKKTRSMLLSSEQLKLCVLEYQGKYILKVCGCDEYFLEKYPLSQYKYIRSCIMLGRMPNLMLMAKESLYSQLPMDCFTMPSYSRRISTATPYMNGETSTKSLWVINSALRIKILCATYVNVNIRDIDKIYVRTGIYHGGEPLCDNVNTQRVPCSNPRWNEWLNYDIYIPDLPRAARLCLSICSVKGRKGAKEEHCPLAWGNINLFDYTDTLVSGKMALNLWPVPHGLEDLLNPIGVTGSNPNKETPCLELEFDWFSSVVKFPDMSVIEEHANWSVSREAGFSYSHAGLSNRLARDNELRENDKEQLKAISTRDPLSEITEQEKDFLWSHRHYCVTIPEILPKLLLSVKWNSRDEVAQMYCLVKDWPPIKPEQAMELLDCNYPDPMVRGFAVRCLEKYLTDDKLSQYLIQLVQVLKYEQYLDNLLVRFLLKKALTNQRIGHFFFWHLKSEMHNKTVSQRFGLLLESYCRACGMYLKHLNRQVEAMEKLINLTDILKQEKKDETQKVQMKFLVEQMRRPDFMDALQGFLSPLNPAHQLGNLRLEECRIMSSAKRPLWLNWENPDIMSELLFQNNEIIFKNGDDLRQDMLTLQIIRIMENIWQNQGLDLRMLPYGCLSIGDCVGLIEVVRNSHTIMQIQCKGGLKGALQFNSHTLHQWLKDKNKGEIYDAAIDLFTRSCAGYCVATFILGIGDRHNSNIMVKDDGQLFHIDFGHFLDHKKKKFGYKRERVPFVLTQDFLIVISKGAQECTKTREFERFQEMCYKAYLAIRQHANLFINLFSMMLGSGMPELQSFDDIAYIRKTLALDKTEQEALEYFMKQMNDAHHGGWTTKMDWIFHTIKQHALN
PI3Kα (p110/p85) kinase (wild type, "WT"), sequence (P27986 whole entry partner): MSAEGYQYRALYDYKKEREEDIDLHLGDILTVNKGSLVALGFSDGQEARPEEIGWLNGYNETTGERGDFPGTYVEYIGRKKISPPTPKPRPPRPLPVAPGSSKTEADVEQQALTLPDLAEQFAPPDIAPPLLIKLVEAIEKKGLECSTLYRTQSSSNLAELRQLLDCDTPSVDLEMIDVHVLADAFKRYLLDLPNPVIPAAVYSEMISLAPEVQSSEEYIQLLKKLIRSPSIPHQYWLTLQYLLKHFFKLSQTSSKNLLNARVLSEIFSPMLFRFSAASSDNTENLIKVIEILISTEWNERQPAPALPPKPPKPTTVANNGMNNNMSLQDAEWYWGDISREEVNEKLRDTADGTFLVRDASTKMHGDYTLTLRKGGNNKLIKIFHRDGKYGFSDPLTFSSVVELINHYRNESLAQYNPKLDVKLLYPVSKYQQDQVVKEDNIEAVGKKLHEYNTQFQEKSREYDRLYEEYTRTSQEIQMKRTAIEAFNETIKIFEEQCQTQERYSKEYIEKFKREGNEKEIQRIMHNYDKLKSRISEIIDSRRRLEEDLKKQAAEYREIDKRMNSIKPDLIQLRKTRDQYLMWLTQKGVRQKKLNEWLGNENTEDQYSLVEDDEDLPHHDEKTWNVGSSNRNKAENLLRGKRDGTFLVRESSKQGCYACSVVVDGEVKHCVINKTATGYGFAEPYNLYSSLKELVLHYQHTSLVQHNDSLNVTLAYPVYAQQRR
Outline: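 Wild-type PI3Kα p110/p85 preincubated 30 min at RT with PI(4,5)P2:PS substrate ([…]) and compound ([…]) in HEPES pH7.5 buffer with MgCl2, DTT and BSA; reaction started with 25 µM ATP for 120 min at RT. ADP measured by ADP-Glo luminescence; IC50 from four-parameter logistic fit.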

| Structure (SMILES) | IC50 [1] [µM] | IC50 [2] [µM] | IC50 [3] [µM] |
| --- | --- | --- | --- |
| Cc1cc(C(C)Nc2ccccc2C(=O)O)c2cc(-c3ccc(C#N)cc3)n(C)c(=O)c2c1 (stereo not drawn) [Example 4, 2-((1-(3-(4-cyanophenyl)-2,7-dimethyl-1-oxo-1,2-dihydroisoquinolin-5-yl)ethyl)amino)benzoic acid] | > 10 | > 10 | 3.87 |
| Cc1cc(C(C)Nc2ccccc2C(=O)O)c2cc(-c3cnn(C)c3)n(C)c(=O)c2c1 (stereo not drawn) [Example 91, 2-((1-(2,7-dimethyl-3-(1-methyl-1H-pyrazol-4-yl)-1-oxo-1,2-dihydroisoquinolin-5-yl)ethyl)amino)benzoic acid] | > 10 | 4.73 | 9.82 |
| Cc1cc(C(C)Nc2sc3ccccc3c2C(=O)O)c2cc(-c3ccccc3)n(C)c(=O)c2c1 (stereo not drawn) [Example 92, 2-((1-(2,7-dimethyl-1-oxo-3-phenyl-1,2-dihydroisoquinolin-5-yl)ethyl)amino)benzo[b]thiophene-3-carboxylic acid] | > 10 | > 10 | > 100 |
